Legend:
Type in all cases: cell-based
Salmonella Typhimirium = assay: Growth of inoculated Salmonella Typhimirium on meat under defined atmospheres; conditions: beef; high CO (95-100%) or low (10%) CO versus untreated
Protocol: (§1) Studies were carried out comparing growth of inoculated pathogenic bacteria on fresh meat under three atmospheres. Air and two CO containing modified atmospheres: high CO (95-100%) and low (10%) CO. In low CO MA CO was replaced by an inert gas, nitrogen. Note that in most experiments the CO untreated control was the same for both modified atmospheres. Experiments with E coli were carried out on different meat controls.

Listeria monocytogenes = assay: Growth of inoculated Listeria monocytogenes on meat under defined atmospheres; conditions: beef and poultry; high CO (95-100%) or low (10%) CO versus untreated
Protocol: as §1

[1] = test system: bacteria present on the surface of meat samples; assay: Bacterial growth under air, CO and N2 atmospheres, non-selective agar plates (Bactoagar); conditions: 4 g meat samples flushed with gas, 24 h at 15±3° C.; plates overnight at 37° C.
Protocol: (§2) Meat samples weighing 4.00+0.18 grams, were treated by flushing with either air, CO, or N2. After twenty-four hours of storage at room temperature (15±3° C.) each of the treated meat samples was soaked in sterile 0.15M sodium chloride (1 ml per 2 grams of treated meat) for ninety minutes to extract any bacteria present on the surface of individual samples. Aliquots of serial dilutions of the extracts were plated onto non-selective agar plates (Bactoagar, Difco) and on Gram negative selective plates (MacConkey, Difco). All the plates were incubated over night at 37° C. to allow bacterial growth.

E coli = assay: Growth of inoculated E coli on meat under defined atmospheres; conditions: beef; high CO (95-100%) or low (10%) CO versus untreated
Protocol: as §1

Pseudomonas fluorescence = assay: Growth of inoculated Pseudomonas fluorescence on meat under defined atmospheres; conditions: beef and poultry; high CO (95-100%) or low (10%) CO versus untreated
Protocol: as §1

Clostridium prefringens = assay: Growth of inoculated Clostridium prefringens on meat under defined atmospheres; conditions: beef and poultry; high CO (95-100%) or low (10%) CO versus untreated
Protocol: as §1

[2] = test system: Gram negative bacteria on the surface of meat samples; assay: Bacterial growth under air, CO and N2 atmospheres, Gram negative selective plates (MacConkey); conditions: 4 g meat samples flushed with gas, 24 h at 15±3° C.; MacConkey plates overnight at 37° C.
Protocol: as §2

Staphylococcus aures = assay: Growth of inoculated Staphylococcus aures on meat under defined atmospheres; conditions: beef; high CO (95-100%) versus untreated
Protocol: as §1

SMILES	growth of Salmonella Typhimirium (Salmonella Typhimirium)	growth of Listeria monocytogenes (Listeria monocytogenes)	No of calories, Grown on bactoagar (bacterial colony counts per gram of meat, mean±SD) [1]	growth of E coli (E coli)	growth of Pseudomonas fluorescence (Pseudomonas fluorescence)	growth of Clostridium prefringens (Clostridium prefringens)	No of calories, Gram negative (bacterial colony counts per gram of meat, mean±SD) [2]	growth of Staphylococcus aures (Staphylococcus aures)
[C-]#[O+] [CO, carbon monoxide]	inhibited	inhibited	(0.29 ± 0.01) × 10^6 per gram of meat	inhibited	inhibited	inhibited	0.02 ± 0.01) × 10^6 per gram of meat	inhibited
N#N [N2, nitrogen, reference compound]	–	–	(1.63 ± 0.3) × 10^6 per gram of meat	–	–	–	(0.46 + 0.25) × 10^6 per gram of meat	–
